From ChEMBL document CHEMBL1201862, “PubChem BioAssay data set” (2004) come the findings set out here.

Some test systems named below: NCI-H522; SK-MEL-5; KM12; IGROV-1; UACC-62; HOP-62; RPMI-8226; 786-0; LOX IMVI; UACC-257; A549; HOP-92; SF-295; OVCAR-4; CAKI-1; Malme-3M; SR.
Holding throughout (test): growth of human tumour cells (NCI), 48 h

The structures appear in SMILES notation.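 In this assay, cells in 96-well plates receive the compound at five concentrations for 48 hours. Endpoints are linearly interpolated between the surrounding concentrations. GI50 marks 50% less growth.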 The source made the active and inactive calls. Cut-off read from the data, not from the text of the source: active = GI50 up to about 1.1 µM and inactive = higher.

With `COc1ccc2[nH]c3c(c2c1)[C@H]1CCC(C(C)(C)C)C[C@H]1[C@H]1C(=O)N(c2ccccc2)C(=O)[C@@H]31` (some centres undefined), the GI50 in the experiment on NCI-H522 is 12.1 µM (inactive); in the experiment on SK-MEL-5, > 47.6 µM (inactive); with KM12, > 43.4 µM (inactive); with IGROV-1 it was > 58.7 µM (inactive); in the experiment with UACC-62, 31 µM (inactive); in the experiment with HOP-62 it was 11.1 µM (inactive). For the same molecule, the GI50 in the experiment with RPMI-8226 is 33.3 µM (inactive); in the experiment with 786-0 it was 3.86 µM (inactive); with LOX IMVI it was 20.7 µM (inactive); in the experiment with UACC-257, 24.2 µM (inactive); in the experiment with A549 it was 12.7 µM (inactive); in the experiment on HOP-92 it was 6.21 µM (inactive). The GI50 was 7.18 µM (inactive) in the experiment on SF-295, 3.3 µM (inactive) with OVCAR-4, 12 µM (inactive) with CAKI-1 and 15.8 µM (inactive) in the experiment with Malme-3M.
Turning to `CCCCc1nccc2c(C)c3[nH]c4ccccc4c3cc12`, the GI50 in the experiment with NCI-H522 was 1.91 µM (inactive); in the experiment with SK-MEL-5, 2.24 µM (inactive); in the experiment on KM12 it was 3.09 µM (inactive); in the experiment with IGROV-1 it was 3.33 µM (inactive); in the experiment on UACC-62, 2.8 µM (inactive); in the experiment with HOP-62, 3.68 µM (inactive). Besides, the GI50 in the experiment with RPMI-8226 is 2 µM (inactive); with LOX IMVI it was 1.5 µM (inactive); with UACC-257 it was 2.42 µM (inactive); in the experiment on A549, 3.87 µM (inactive); with HOP-92, 3.74 µM (inactive); with SF-295, 2.68 µM (inactive). Besides, the GI50 in the experiment on OVCAR-4 was 3.91 µM (inactive); with CAKI-1, 2.59 µM (inactive); in the experiment on Malme-3M, 6.04 µM (inactive).
Take `COc1ccc2c(c1)CCc1c(CO)c(COC(=O)NC(C)C)n(C)c1-2`: the GI50 was 3.44 µM (inactive) with NCI-H522; 4.51 µM (inactive) with SK-MEL-5; 6.61 µM (inactive) with KM12; 5.68 µM (inactive) with IGROV-1; 5.6 µM (inactive) with UACC-62; 24 µM (inactive) in the experiment with HOP-62. Further, the GI50 is 2.24 µM (inactive) in the experiment on RPMI-8226; 4.41 µM (inactive) with 786-0; 4.91 µM (inactive) in the experiment with LOX IMVI; 4.42 µM (inactive) in the experiment on UACC-257; 6.53 µM (inactive) with A549; 4.01 µM (inactive) with HOP-92. The GI50 with SF-295 is 9.35 µM (inactive); in the experiment with OVCAR-4, 4.34 µM (inactive); with CAKI-1 it was 5.81 µM (inactive); in the experiment on Malme-3M, 4.15 µM (inactive).
Turning to `CC1=CC2CC(C)C1(C)CCc1ccoc12` (centres undefined), the GI50 in the experiment on SK-MEL-5, with KM12, in the experiment with IGROV-1, in the experiment on UACC-62, with HOP-62 and in the experiment on RPMI-8226 was > 100 µM (inactive) in each case. Besides, the GI50 with 786-0, in the experiment with LOX IMVI, in the experiment with UACC-257, in the experiment with SR, with A549 and in the experiment with HOP-92 was > 100 µM (inactive) each time. Further, the GI50 in the experiment on SF-295, in the experiment on OVCAR-4, with CAKI-1 and in the experiment on Malme-3M was > 100 µM (inactive) each time.
Regarding `COC(=O)c1cc(CC(C)C)c2c(c1)[nH]c1ccccc12`, the GI50 in the experiment with NCI-H522 is 68.2 µM (inactive); in the experiment with SK-MEL-5 it was 78.7 µM (inactive); in the experiment with KM12, 91.2 µM (inactive); in the experiment with IGROV-1, > 100 µM (inactive); in the experiment with UACC-62, 96.8 µM (inactive); in the experiment on 786-0, > 100 µM (inactive). The GI50 in the experiment with LOX IMVI was > 100 µM (inactive); in the experiment on UACC-257 it was > 10 µM (inactive); in the experiment on A549 it was > 100 µM (inactive); in the experiment on HOP-92, 43.5 µM (inactive); in the experiment with SF-295, > 100 µM (inactive); in the experiment with OVCAR-4, > 100 µM (inactive). Further, the GI50 in the experiment with CAKI-1 and in the experiment with Malme-3M was > 100 µM (inactive) throughout.
In the case of `CNc1ccc2ncccc2c1[N+](=O)[O-]`, the GI50 in the experiment on SK-MEL-5, in the experiment on KM12, in the experiment on IGROV-1, with UACC-62, in the experiment with HOP-62 and with RPMI-8226 was > 100 µM (inactive) in each case. Also, the GI50 in the experiment with 786-0, in the experiment on LOX IMVI, in the experiment with UACC-257, in the experiment on SR, in the experiment on A549 and with HOP-92 was > 100 µM (inactive) throughout. In addition, the GI50 in the experiment with SF-295, with OVCAR-4, with CAKI-1 and in the experiment on Malme-3M was > 100 µM (inactive) in each case.
For the molecule `CCOC(=O)C(=O)Nc1c(CC)cccc1C(C)C`, the GI50 in the experiment on KM12, with IGROV-1, in the experiment with UACC-62, with HOP-62, with RPMI-8226 and in the experiment on 786-0 was > 100 µM (inactive) in each case. The GI50 in the experiment on LOX IMVI was > 100 µM (inactive); in the experiment on UACC-257, > 100 µM (inactive); in the experiment on SR, 0.0151 µM (active); in the experiment on A549, > 100 µM (inactive); in the experiment on HOP-92, > 100 µM (inactive); in the experiment with SF-295, > 100 µM (inactive). Besides, the GI50 with OVCAR-4, with CAKI-1 and in the experiment on Malme-3M was > 100 µM (inactive) each time.
Take `O=C1c2ccccc2C(=O)c2nc3c(O)cccc3cc21`: the GI50 in the experiment with NCI-H522 was 4.97 µM (inactive); in the experiment with SK-MEL-5, 3.6 µM (inactive); with KM12 it was 47.6 µM (inactive); with IGROV-1 it was 57.8 µM (inactive); with UACC-62, 37.3 µM (inactive); with HOP-62 it was 38.9 µM (inactive). Besides, the GI50 with RPMI-8226 was 6.47 µM (inactive); in the experiment on 786-0, 6.38 µM (inactive); with LOX IMVI, 13.9 µM (inactive); in the experiment on UACC-257, 10.3 µM (inactive); in the experiment with SR it was 3.18 µM (inactive); in the experiment on A549 it was 17.8 µM (inactive). Also, the GI50 with SF-295 was 12.7 µM (inactive); with OVCAR-4, 12.9 µM (inactive); in the experiment on CAKI-1 it was 93.1 µM (inactive); in the experiment on Malme-3M, 53.5 µM (inactive).
Consider `CN1c2ccccc2N(C)C23N(C)c4ccccc4N(C)C12N(C)c1ccccc1N3C` (centres undefined), for which the GI50 in the experiment on NCI-H522 is > 100 µM (inactive); in the experiment with SK-MEL-5 it was > 100 µM (inactive); in the experiment with KM12, > 100 µM (inactive); with IGROV-1 it was > 100 µM (inactive); in the experiment on UACC-62, > 100 µM (inactive); in the experiment with HOP-62, 87.1 µM (inactive). In addition, the GI50 in the experiment on 786-0 was > 100 µM (inactive); with LOX IMVI, > 100 µM (inactive); in the experiment on UACC-257, > 100 µM (inactive); in the experiment with A549 it was > 100 µM (inactive); with HOP-92, 22.9 µM (inactive); in the experiment on SF-295 it was > 100 µM (inactive). Further, the GI50 in the experiment with CAKI-1 and in the experiment with Malme-3M was > 100 µM (inactive) in each case.
For the molecule `CCC12CCC(O)C1N(C)CCC2Sc1ccccc1` (centres undefined), the GI50 is > 100 µM (inactive) with NCI-H522; 33 µM (inactive) in the experiment on SK-MEL-5; 52.8 µM (inactive) in the experiment on KM12; > 100 µM (inactive) in the experiment on IGROV-1; > 100 µM (inactive) in the experiment on UACC-62; > 100 µM (inactive) with HOP-62. Further, the GI50 with RPMI-8226 is 59.3 µM (inactive); in the experiment on 786-0 it was > 100 µM (inactive); with LOX IMVI, > 100 µM (inactive); in the experiment with UACC-257, 61.2 µM (inactive); with A549, > 100 µM (inactive); in the experiment with HOP-92, 28.6 µM (inactive). The GI50 was 76.2 µM (inactive) in the experiment on SF-295, > 100 µM (inactive) in the experiment with OVCAR-4 and 35.2 µM (inactive) with Malme-3M.
As for `O=C(CC1(O)C(=O)Nc2ccc(Br)cc21)c1cccc([N+](=O)[O-])c1` (centres undefined), the GI50 with NCI-H522 is 22.2 µM (inactive); with SK-MEL-5, > 10 µM (inactive); with KM12, 42.6 µM (inactive); in the experiment on HOP-62, 49.5 µM (inactive); in the experiment with RPMI-8226, 18.3 µM (inactive); in the experiment with 786-0, 42.7 µM (inactive). In addition, the GI50 was 32.4 µM (inactive) in the experiment on LOX IMVI; 27.9 µM (inactive) in the experiment on UACC-257; > 100 µM (inactive) with A549; 20.8 µM (inactive) in the experiment on HOP-92; 59 µM (inactive) with SF-295; 23.1 µM (inactive) in the experiment with OVCAR-4. The GI50 in the experiment on CAKI-1 is 40.9 µM (inactive); in the experiment on Malme-3M, > 100 µM (inactive).
Take `CC1=C(O)C(=O)c2cn(C)cc2C1=O`: the GI50 in the experiment with SK-MEL-5, with KM12, with IGROV-1, in the experiment on UACC-62, in the experiment on HOP-62 and with RPMI-8226 was > 100 µM (inactive) throughout. For the same molecule, the GI50 in the experiment with 786-0, with LOX IMVI, in the experiment on UACC-257, with SR, in the experiment on A549 and with HOP-92 was > 100 µM (inactive) in each case. Moreover, the GI50 with SF-295, with OVCAR-4, in the experiment on CAKI-1 and in the experiment on Malme-3M was > 100 µM (inactive) in each case.
As for `Cc1ccc(C2C(Cl)C(=O)N2NC(=O)c2ccc(N)cc2)cc1` (centres undefined), the GI50 in the experiment with NCI-H522 was 12 µM (inactive); in the experiment with SK-MEL-5, 15.2 µM (inactive); with KM12 it was 25.5 µM (inactive); in the experiment on IGROV-1, 8.97 µM (inactive); in the experiment on UACC-62, 15.8 µM (inactive); in the experiment with HOP-62, 22.4 µM (inactive). Also, the GI50 with RPMI-8226 was 24.2 µM (inactive); in the experiment with 786-0, 15.5 µM (inactive); with LOX IMVI, 11.2 µM (inactive); in the experiment on UACC-257 it was 24.3 µM (inactive); in the experiment with A549, 27.7 µM (inactive); in the experiment on HOP-92, 14.5 µM (inactive). Also, the GI50 in the experiment with SF-295 was 20.3 µM (inactive); with OVCAR-4, 29 µM (inactive); in the experiment on CAKI-1, 20.1 µM (inactive); in the experiment on Malme-3M it was 17.1 µM (inactive).
